Results on 17 compounds are retold here after patent US8399683B2 (TetraLogic Pharmaceuticals, priority 2008, dated 2013).

Broadly, the Kd is a measure of binding affinity in units of concentration. The CC50 is the concentration at which the toxic effect on the cells reaches its halfway point. Lower therefore signals greater toxicity to the cells.

The target of experiment [1] is T1, XIAP BIR-3 (Homo sapiens, UniProt P98170).
T1 construct: 40 nM of the respective IAP BIR3
Put plainly: Fluorescence polarization binding affinity to XIAP BIR-3 (competition with AbuRPF-K(5-Fam)-NH2). Conditions: 5 nM labeled peptide, 40 nM BIR3, 15 min at RT, pH 7.5; reported as ranges. The protocol:
(§1) The binding affinities of the compounds are reported as a KD value (μM). Briefly, various concentrations of test peptides were mixed with 5 nM of the fluorescently labeled peptide (i.e., a mutated N-terminal Smac peptide—AbuRPF-K(5-Fam)-NH2) and 40 nM of the respective IAP BIR3 for 15 min at RT in […] of 0.1M Potassium Phosphate buffer, pH 7.5 containing […] bovine g-globulin. Following incubation, the polarization values (mP) were measured on a Victor2V (available from PerkinElmer Life Sciences) using a 485 nm excitation filter and a 520 nm emission filter. The reported KD values are supplied as ranges (A=<0.1 μM, B=0.1 μM to 1 μM, C>1 μM to 10 μM, D=>10 μM).
For orientation: Polarisation of emitted light reports the rotation of a fluorescent probe.

For experiment [2], the target named is cIAP-1 BIR-3 (Homo sapiens, UniProt Q13490). Kind of experiment: Fluorescence polarization binding affinity to cIAP-1 BIR-3 (competition with AbuRPF-K(5-Fam)-NH2). The conditions noted are these: 5 nM labeled peptide, 40 nM BIR3, 15 min at RT, pH 7.5; reported as ranges; read-out: KD (c-IAP-1 BIR3). Here is the method: as §1
Chain of cIAP-1 BIR-3 (Q13490 266-352 limits assumed): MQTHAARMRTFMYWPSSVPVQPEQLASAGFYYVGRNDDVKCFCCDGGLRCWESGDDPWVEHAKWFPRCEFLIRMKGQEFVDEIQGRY
In experiment [3] the test system is SK-OV-3 cells. Kind of experiment: Growth inhibition of ovarian cancer cell line SK-OV-3 (MTT assay, cell survival). The class given is cell-based. The conditions noted are these: Homo sapiens, drug concentration that results in 50% cell survival, 72 hrs incubation, reported as ranges. The protocol:
Compounds of the invention also were tested for their ability to inhibit the growth of an ovarian cancer cell line, SK-OV-3. A known assay previously used for measuring cell growth (as described in Hansen, M. B., Nielsen, S. E., and Berg, K. (1989) J. Immunol. Methods 119, 203-210 and incorporated herein by reference in its entirety) was used. Briefly, SK-OV-3 cells are seeded in 96-well plates in McCoy's medium containing 10% fetal bovine serum albumin (5,000 per well) and incubated overnight at 37° C. The next day, test compounds are added at various concentrations (0.003-10 μM) and the plates are incubated at 37° C. for an additional 72 hrs. This incubation time was considered to be optimal for measuring inhibitory effects of the different compounds tested. 50 microliters of 5 mg/mL MTT reagent is added to each well and the plates are incubated at 37° C. for another three (3) hours. At the end of the three (3) hour incubation period, 50 microliters of DMSO is added to each well to dissolve cells and the optical density (OD) of the wells is measured with a microplate reader (Victor^2 1420, Wallac, Finland) at 535 nm. Cell survival (CS) was calculated using the following equation: CS=(OD treated well/mean OD control wells)×100%.
The CC50 (reported in the following tables), is defined as the drug concentration that results in 50% cell survival (CS), and is derived by calculating the point where the dose-response curve crosses the 50% CS point using GraphPad Prism. The reported CC50 values are supplied as ranges (A=<0.1 μM, B=0.1 μM to 1 μM, C=>1 μM to 10 μM, D=>10 μM).
Background: Tetrazolium dyes change colour on reduction, which living cells bring about.

Molecules are shown by their SMILES.

T1 sequence (P98170 241-356 limits assumed): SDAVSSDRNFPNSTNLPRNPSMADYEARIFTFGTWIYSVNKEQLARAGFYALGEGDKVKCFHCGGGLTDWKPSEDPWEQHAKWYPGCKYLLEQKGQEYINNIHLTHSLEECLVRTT

For the compound `CN[C@@H](C)C(=O)N[C@@H](COC)C(=O)N1CC[C@H]2NC[C@H](c3c[nH]c4cc(F)ccc34)[C@H]21` [Example 34, N-{2-[6-(6-Fluoro-1H-indol-3-yl)-hexahydro-pyrrolo[3,2-b]pyrrol-1-yl]-1-methoxymethyl-2-oxo-ethyl}-2-methylamino-propionamide], the equilibrium dissociation constant (Kd) in experiment [1] and in experiment [2] was < 100 nM each time. Moreover, the 50% cytotoxic concentration (CC50) in experiment [3] lay within 1000 to 10000 nM.
Take `CN[C@@H](C)C(=O)N[C@H](C(=O)N1CC[C@H]2NC[C@H](c3c[nH]c4cc(F)ccc34)[C@H]21)[C@@H](C)OC` [Example 35, N-{1-[6-(6-Fluoro-1H-indol-3-yl)-hexahydro-pyrrolo[3,2-b]pyrrole-1-carbonyl]-2-methoxy-propyl}-2-methylamino-propionamide]: the Kd in experiment [1] and in experiment [2] was < 100 nM each time. For the same compound, in experiment [3], the CC50 was < 100 nM.
With `CN[C@@H](C)C(=O)N[C@H](C(=O)N1CC[C@@H]2[C@H]1[C@@H](c1c[nH]c3cc(F)ccc13)CN2C(=O)OC)C1CCCCC1` [Example 36, 4-[2-Cyclohexyl-2-(2-methylamino-propionylamino)-acetyl]-3-(6-fluoro-1H-indol-3-yl)-hexahydro-pyrrolo[3,2-b]pyrrole-1-carboxylic acid methyl ester], the dissociation constant (Kd) in experiment [1] and in experiment [2] was < 100 nM each time. Moreover, the CC50 in experiment [3] is < 100 nM.
As for `CN[C@@H](C)C(=O)N[C@H](C(=O)N1CC[C@@H]2[C@H]1[C@@H](c1c[nH]c3cc(F)ccc13)CN2C(=O)C(F)(F)F)C1CCCCC1` [Example 37, N-{1-Cyclohexyl-2-[6-(6-fluoro-1H-indol-3-yl)-4-(2,2,2-trifluoro-acetyl)-hexahydro-pyrrolo[3,2-b]pyrrol-1-yl]-2-oxo-ethyl}-2-methylamino-propionamide], the Kd in experiment [1] and in experiment [2] was < 100 nM in each case. Moreover, the cytotoxic concentration (CC50) in experiment [3] was < 100 nM.
For `CN[C@@H](C)C(=O)N[C@H](C(=O)N1CC[C@@H]2[C@H]1[C@@H](c1c[nH]c3cc(F)ccc13)CN2C(=O)c1ccccc1)C1CCCCC1` [Example 38, N-{2-[4-Benzoyl-6-(6-fluoro-1H-indol-3-yl)-hexahydro-pyrrolo[3,2-b]pyrrol-1-yl]-1-cyclohexyl-2-oxo-ethyl}-2-methylamino-propionamide], the Kd in experiment [1] and in experiment [2] was < 100 nM throughout. Also, the CC50 in experiment [3] was < 100 nM.
On to `CN[C@@H](C)C(=O)N[C@H](C(=O)N1CC[C@@H]2[C@H]1[C@@H](c1c[nH]c3cc(F)ccc13)CN2C(=O)Cc1ccccc1)C1CCCCC1` [Example 39, N-{1-Cyclohexyl-2-[6-(6-fluoro-1H-indol-3-yl)-4-phenylacetyl-hexahydro-pyrrolo[3,2-b]pyrrol-1-yl]-2-oxo-ethyl}-2-methylamino-propionamide], for which the Kd in experiment [1] and in experiment [2] was < 100 nM in each case. Besides, the cytotoxic concentration (CC50) in experiment [3] is < 100 nM.
Turning to `CN[C@@H](C)C(=O)N[C@H](C(=O)N1CC[C@@H]2[C@H]1[C@@H](c1c[nH]c3cc(F)ccc13)CN2C(=O)C1CC1)C1CCCCC1` [Example 40, N-{1-Cyclohexyl-2-[4-cyclopropanecarbonyl-6-(6-fluoro-1H-indol-3-yl)-hexahydro-pyrrolo[3,2-b]pyrrol-1-yl]-2-oxo-ethyl}-2-methylamino-propionamide], the Kd in experiment [1] and in experiment [2] was < 100 nM in each case. In addition, the CC50 in experiment [3] is < 100 nM.
With `CCOC(=O)CN1C[C@H](c2c[nH]c3cc(F)ccc23)[C@@H]2[C@H]1CCN2C(=O)[C@@H](NC(=O)[C@H](C)NC)C1CCCCC1` [Example 41, [4-[2-Cyclohexyl-2-(2-methylamino-propionylamino)-acetyl]-3-(6-fluoro-1H-indol-3-yl)-hexahydro-pyrrolo[3,2-b]pyrrol-1-yl]-acetic acid ethyl ester], the dissociation constant Kd in experiment [1] and in experiment [2] was < 100 nM throughout. In experiment [3], the cytotoxic concentration (CC50) lay within 100 to 1000 nM.
Regarding `CN[C@@H](C)C(=O)N[C@H](C(=O)N1CC[C@@H]2[C@H]1[C@@H](c1c[nH]c3cc(F)ccc13)CN2CC(=O)O)C1CCCCC1` [Example 42, [4-[2-Cyclohexyl-2-(2-methylamino-propionylamino)-acetyl]-3-(6-fluoro-1H-indol-3-yl)-hexahydro-pyrrolo[3,2-b]pyrrol-1-yl]-acetic acid], the figures for the Kd in experiment [1] and in experiment [2] were 100 to 1000 nM and < 100 nM, respectively. The cytotoxic concentration (CC50) in experiment [3] was 1000 to 10000 nM.
On the same counts, the results for `CN[C@@H](C)C(=O)N[C@H](C(=O)N1CC[C@@H]2[C@H]1[C@@H](c1c[nH]c3cc(F)ccc13)CN2S(C)(=O)=O)C1CCCCC1` [Example 43, N-{1-Cyclohexyl-2-[6-(6-fluoro-1H-indol-3-yl)-4-methanesulfonyl-hexahydro-pyrrolo[3,2-b]pyrrol-1-yl]-2-oxo-ethyl}-2-methylamino-propionamide] are < 100 nM, < 100 nM and < 100 nM.
Take `CN[C@@H](C)C(=O)N[C@H](C(=O)N1CC[C@@H]2[C@H]1[C@H](c1c[nH]c3cc(F)ccc13)CN2S(C)(=O)=O)C1CCCCC1` [Example 44]: the values for the Kd in experiment [1] and in experiment [2] were 1000 to 10000 nM and 100 to 1000 nM, respectively. The CC50 in experiment [3] was 1000 to 10000 nM.
For the compound `CC[C@H](NC(=O)[C@H](C)NC)C(=O)N1CC[C@@H]2[C@H]1[C@H](c1c[nH]c3cc(F)ccc13)CN2S(C)(=O)=O` [Example 45, N-{1-[6-(6-Fluoro-1H-indol-3-yl)-4-methanesulfonyl-hexahydro-pyrrolo[3,2-b]pyrrole-1-carbonyl]-propyl}-2-methylamino-propionamide], the results for the Kd in experiment [1] and in experiment [2] were > 10000 nM and 1000 to 10000 nM, respectively. Besides, the cytotoxic concentration (CC50) in experiment [3] is > 10000 nM.
In the case of `CC[C@H](NC(=O)[C@H](C)NC)C(=O)N1CC[C@@H]2[C@H]1[C@@H](c1c[nH]c3cc(F)ccc13)CN2S(C)(=O)=O` [Example 46, N-{1-[6-(6-Fluoro-1H-indol-3-yl)-4-methanesulfonyl-hexahydro-pyrrolo[3,2-b]pyrrole-1-carbonyl]-propyl}-2-methylamino-propionamide], the dissociation constant Kd in experiment [1] and in experiment [2] was < 100 nM throughout. For the same compound, the CC50 in experiment [3] is < 100 nM.
Turning to `CN[C@@H](C)C(=O)N[C@H](C(=O)N1CC[C@@H]2[C@H]1[C@H](c1c[nH]c3cc(F)ccc13)CN2S(C)(=O)=O)C(C)C` [Example 47, N-{1-[6-(6-Fluoro-1H-indol-3-yl)-4-methanesulfonyl-hexahydro-pyrrolo[3,2-b]pyrrole-1-carbonyl]-2-methyl-propyl}-2-methylamino-propionamide], the Kd in experiment [1] and in experiment [2] was 100 to 1000 nM each time. Besides, the CC50 in experiment [3] was > 10000 nM.
Regarding `CN[C@@H](C)C(=O)N[C@H](C(=O)N1CC[C@@H]2[C@H]1[C@@H](c1c[nH]c3cc(F)ccc13)CN2S(C)(=O)=O)C(C)C` [Example 48, N-{1-[6-(6-Fluoro-1H-indol-3-yl)-4-methanesulfonyl-hexahydro-pyrrolo[3,2-b]pyrrole-1-carbonyl]-2-methyl-propyl}-2-methylamino-propionamide], the Kd in experiment [1] and in experiment [2] was < 100 nM throughout. The 50% cytotoxic concentration (CC50) in experiment [3] is < 100 nM.
As to `CN[C@@H](C)C(=O)N[C@H](C(=O)N1CC[C@@H]2[C@H]1[C@H](c1c[nH]c3cc(F)ccc13)CN2S(C)(=O)=O)C(C)(C)C` [Example 49, N-{1-[6-(6-Fluoro-1H-indol-3-yl)-4-methanesulfonyl-hexahydro-pyrrolo[3,2-b]pyrrole-1-carbonyl]-2,2-dimethyl-propyl}-2-methylamino-propionamide], the dissociation constant Kd is 1000 to 10000 nM in experiment [1] and 100 to 1000 nM in experiment [2]. Further, in experiment [3], the half-maximal cytotoxic concentration (CC50) was > 10000 nM.
For the compound `CN[C@@H](C)C(=O)N[C@H](C(=O)N1CC[C@@H]2[C@H]1[C@@H](c1c[nH]c3cc(F)ccc13)CN2S(C)(=O)=O)C(C)(C)C` [Example 50, N-{1-[6-(6-Fluoro-1H-indol-3-yl)-4-methanesulfonyl-hexahydro-pyrrolo[3,2-b]pyrrole-1-carbonyl]-2,2-dimethyl-propyl}-2-methylamino-propionamide], the Kd in experiment [1] and in experiment [2] was < 100 nM each time. In addition, the 50% cytotoxic concentration (CC50) in experiment [3] is < 100 nM.
